We go through 8 compounds from patent US20110172416A1, “AMIDINE DERIVATIVE” (Ajinomoto Co., Inc., priority 2008, published 2011).

A value given as a limit tells only on which side of the number the result lay.

Usually IC50 stands for the concentration that gives 50% inhibition. A higher IC50 goes with lower potency. Broadly, the half-life is the time in which the quantity being followed falls by half.

One series deals with human plasma. As to the kind of experiment: Measurement of anti-blood coagulant activity (aPTT measurement method). It counts as biochemical. The following applies: negative logarithmic value of concentration at which aPTT of the control was double-extended. The protocol: The test was performed according to an aPTT measurement method using a fully-automated blood coagulation time measuring apparatus Sysmex CA-1500. In a sample tube (MS-18, Japan Medical Science) were placed DDVP solution (10 mg/ml, DDVP standard product, Wako Corporation, 4 μL), a solution (20 μL) of a test compound, and human plasma (human plasma for blood coagulation test, GCH-100A, Sysmex Corporation, 180 μL) and this was used as a test sample. The test sample (50 μL) was incubated at 37° C. for 1 min, APTT (cephalin derived from rabbit brain, DADE Behiring, 50 μL) was added, and the mixture was further incubated at 37° C. for 2 min. To the sample solution was added calcium chloride (0.02 M, 50 μL), and the time before coagulation of the plasma was automatically measured.
The anti-blood coagulation activity was shown by the negative logarithmic value of a concentration at which aPTT of the control was double-extended as paPTT2.

Series [1] addresses activated factor IIa (thrombin) (Homo sapiens, UniProt P00734). The experiment in a line: Measurement of activated factor II (FIIa, thrombin)-inhibitory activity (chromogenic substrate S-2238). It is filed as biochemical. The following applies: negative logarithmic value of concentration suppressing reaction rate of control to 50%. The protocol: (§1) Using a 96 well plate (#3396, Costar), Tris-HCl buffer (100 mM, 130 μL) containing 0.02% Tween 20, 0.1% PEG6000 and 0.2 M NaCl was blended with activated factor IIa (thrombin, 0.125 U/mL, 10 μL) and a test compound (10 μL) for 10 min, and a chromogenic substrate (0.1 mM, S-2238, 50 μL) was added. Using microplate reader Benchmark Plus (BIO-RAD), the reaction rate was measured from the time course changes of absorbance at 405 nm. The reaction rate of the control was taken as 100%, and a negative logarithmic value of a concentration at which the reaction rate of the control could be suppressed to 50% was taken as the pIC50 value. The results are shown by pIC50 (IIa) in Table 2.

In another series the target is FXa (Homo sapiens, UniProt P00742). The experiment in a line: Measurement of activated factor X activity-inhibitory activity (chromogenic substrate S-2222). It counts as biochemical. To be noted: negative logarithmic value of concentration suppressing reaction rate of control to 50%. How it is done:
as §1, with “with FXa (0.015 U/ml,” for “with activated factor IIa (thrombin, 0.125 U/mL,”, “substrate (0.2” for “substrate (0.1”, “mM, S-2222,” for “mM, S-2238,”, “changes in the” for “changes of”, “pIC50 (FXa)” for “pIC50 (IIa)”

Series [2] in a line: Evaluation of stability in plasma. It counts as in vitro ADME. The following applies: human plasma, 37° C., calculated from quantitative lower limit at 2 min when below quantification limit. The protocol: To human plasma (495 μL) was added a solution (5 μL) of the test compound prepared to 100 μg/mL (final drug solution concentration 1 μg/mL), and the mixture was incubated at 37° C. At 0 min, 2 min, 5 min, 10 min, 30 min and 60 min after the addition of the drug solution, 50 μL each was sampled. Acetonitrile (100 μL) was added and the mixture was admixed to discontinue the reaction. After discontinuation of the reaction, a protein elimination treatment was performed by centrifugation (15000 rpm, 5 min). The centrifugation supernatant (20 μL) was diluted with ammonium formate solution (100 mmol/L, pH 4, 180 μL), and subjected to the measurement by LC/MS/MS.
When the value at 2 min after the addition of the drug solution was less than the quantification limit, the half-life was calculated by the following method.
That is, the value at 0 min was taken as the theoretical concentration (1000 ng/mL) and the value at 2 min was taken as the quantitative lower limit concentration. The half-life (T1/2) was calculated from the inclination of the straight line connecting the logarithmic conversion values at the two points.

Chain of FXa (P00742 235-488 limits assumed): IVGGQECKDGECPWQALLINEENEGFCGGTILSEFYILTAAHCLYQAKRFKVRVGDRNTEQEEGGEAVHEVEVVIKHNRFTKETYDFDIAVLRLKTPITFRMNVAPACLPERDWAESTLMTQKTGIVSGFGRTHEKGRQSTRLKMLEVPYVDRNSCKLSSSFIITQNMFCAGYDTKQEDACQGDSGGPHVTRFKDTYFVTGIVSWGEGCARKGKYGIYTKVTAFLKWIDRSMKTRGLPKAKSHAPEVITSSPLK
Chain of FXa (P00742 41-179 partner limits assumed): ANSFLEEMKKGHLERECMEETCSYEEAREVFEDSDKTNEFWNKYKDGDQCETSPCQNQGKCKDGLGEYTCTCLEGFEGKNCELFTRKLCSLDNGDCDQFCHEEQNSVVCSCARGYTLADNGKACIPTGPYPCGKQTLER

As to `N=C(N)N1Cc2ccc(C(=O)OCC3CCN(c4ccncc4)CC3)cc2C1` [compound of Ex. 7, [1-(pyridin-4-yl)piperidin-4-yl]methyl 2-[amino(imino)methyl]isoindoline-5-carboxylate ditrifluoroacetate], the paPTT2 in the series with human plasma worked out at 4.6. Also, the IC50 in series [1] is greater than 100 µM; at FXa, 7.94 µM.
For `COCC1(C(=O)Oc2ccc3c(c2)CN(C(=N)N)CC3)CCN(c2ccncc2)CC1` [compound of Ex. 6, 2-[amino(imino)methyl]-1,2,3,4-tetrahydroisoquinolin-7-yl 4-methoxymethyl-1-(pyridin-4-yl)piperidine-4-carboxylate ditrifluoroacetate] the same measures were 5.4, 39.8 µM and 1.58 µM.
On to `N=C(N)N1CCc2ccc(COC(=O)C3CCN(c4ccncc4)CC3)cc2C1` [compound of Ex. 3, {2-[amino(imino)methyl]-1,2,3,4-tetrahydroisoquinolin-7-yl}methyl 1-(pyridin-4-yl)piperidine-4-carboxylate ditrifluoroacetate], for which the paPTT2 in the series with human plasma was 6.1. Further, in series [2], the half-life at 1 μg/mL is less than 23.9 s. The IC50 in series [1] is 63.1 µM; against FXa, 0.0794 µM.
With `N=C(N)N1Cc2ccc(COC(=O)C3CCN(c4ccncc4)CC3)cc2C1` [compound of Ex. 8, {2-[amino(imino)methyl]-isoindolin-5-yl}methyl 1-(pyridin-4-yl)piperidine-4-carboxylate ditrifluoroacetate], in the series with human plasma, the paPTT2 is on record as less than 5. Also, the results for the IC50 (in series [1]; against FXa) were greater than 100 µM and 3.16 µM, respectively.
In the series on human plasma, `N=C(N)N1CCc2ccc(C(=O)OCC3CCN(c4ccncc4)CC3)cc2C1` [compound of Ex. 2, [1-(pyridin-4-yl)piperidin-4-yl]methyl 2-[amino(imino)methyl]-1,2,3,4-tetrahydroisoquinoline-7-carboxylate ditrifluoroacetate] came in with a paPTT2 of 5.4. In series [2], the half-life at 1 μg/mL was less than 23.7 s. The IC50 in series [1] was greater than 100 µM; at FXa, 0.398 µM.
`CC(=N)N1CCC(Oc2ccc(COC(=O)c3ccc4c(c3)CN(C(=N)N)CC4)cc2)CC1` [compound of Ex. 15, 4-{[1-(1-iminoethyl)piperidin-4-yl]oxy}benzyl 2-[amino(imino)methyl]-1,2,3,4-tetrahydroisoquinoline-7-carboxylate ditrifluoroacetate] came in with a paPTT2 with human plasma of 4.4. Besides, the IC50 is greater than 100 µM in series [1] and 10 µM against FXa.
`CC(=N)N1CCC(Oc2ccc(C(=O)OCc3ccc4c(c3)CN(C(=N)N)CC4)cc2)CC1` [compound of Ex. 16, {2-[amino(imino)methyl]-1,2,3,4-tetrahydroisoquinolin-7-yl}methyl 4-{([1-(1-iminoethyl)piperidin-4-yl]oxy}benzoate ditrifluoroacetate]: the paPTT2 in the series with human plasma turned out to be 4.5. Further, the IC50 was greater than 100 µM in series [1] and 5.01 µM against FXa.
As for `N=C(N)N1CCc2ccc(OC(=O)C3(COCc4ccccc4)CCN(c4ccncc4)CC3)cc2C1` [compound of Ex. 5, 2-[amino(imino)methyl]-1,2,3,4-tetrahydroisoquinolin-7-yl 4-[(benzyloxy)methyl]-1-(pyridin-4-yl)piperidine-4-carboxylate ditrifluoroacetate], the paPTT2 with human plasma is listed as 5.4. Also, the IC50 in series [1] was 20 µM; at FXa, 0.501 µM.
